Measurements: patent US20200237742A1, “Serdexmethylphenidate Conjugates, Compositions And Methods Of Use Thereof” (priority 2018, published 2020)
Counter-ions that a name gives are not always drawn.

Test system: healthy, nondependent, recreational stimulant users with intranasal insufflation experience
Assay: Intranasal study, treatment-emergent adverse events (Table 54)
Procedure: The study consisted of a Screening Period, an in-clinic Drug Discrimination Phase, a Treatment Phase, and a Follow-Up Visit.
All subjects were required to fast for at least 8 hours prior to each dose of study drug until approximately 4 hours after each dose. Abuse potential measures and pharmacokinetic samples were collected at different times after the administration of study drug. Subjects who successfully completed the Drug Discrimination Phase and who qualified for the Treatment Phase remained as inpatients to enter the Treatment Phase.

[1] = intranasal, d-MPH HCl 40 mg, SDX Cl 80 mg, N = 46 each

COC(=O)[C@H](c1ccccc1)[C@H]1CCCCN1 [d-methylphenidate hydrochloride, d-threo-methylphenidate hydrochloride]
typical stimulant-related adverse events (euphoric mood, hypervigilance, cardiac palpitations and tachycardia) (intranasal d-MPH HCl compared to intranasal SDX Cl): occurred more often
Abdominal distension, subjects with event [1]: 0 n (%)
Abdominal pain, number of occurrences [1]: 1 E
Abdominal pain, subjects with event [1]: 1 (2.2%) n (%)
Agitation, subjects with event [1]: 0 n (%)
Anxiety, number of occurrences [1]: 2 E
Anxiety, subjects with event [1]: 2 (4.3%) n (%)
Any TEAE, number of occurrences [1]: 148 E
Any TEAE, subjects with event [1]: 46 (100.0%) n (%)
Arthralgia, subjects with event [1]: 0 n (%)
Asthenia, number of occurrences [1]: 1 E
Asthenia, subjects with event [1]: 1 (2.2%) n (%)
Back pain, number of occurrences [1]: 1 E
Back pain, subjects with event [1]: 1 (2.2%) n (%)
Blood pressure diastolic increased, number of occurrences [1]: 1 E
Blood pressure diastolic increased, subjects with event [1]: 1 (2.2%) n (%)
Bruxism, number of occurrences [1]: 2 E
Bruxism, subjects with event [1]: 2 (4.3%) n (%)
Cardiac disorders, number of occurrences [1]: 29 E
Cardiac disorders, subjects with event [1]: 19 (41.3%) n (%)
Catheter site haematoma, subjects with event [1]: 0 n (%)
Catheter site swelling, subjects with event [1]: 0 n (%)
Change in sustained attention, number of occurrences [1]: 1 E
Change in sustained attention, subjects with event [1]: 1 (2.2%) n (%)
Chest discomfort, number of occurrences [1]: 1 E
Chest discomfort, subjects with event [1]: 1 (2.2%) n (%)
Chest pain, subjects with event [1]: 0 n (%)
Claustrophobia, subjects with event [1]: 0 n (%)
Cough, subjects with event [1]: 0 n (%)
Decreased appetite, number of occurrences [1]: 3 E
Decreased appetite, subjects with event [1]: 3 (6.5%) n (%)
Defaecation urgency, number of occurrences [1]: 1 E
Defaecation urgency, subjects with event [1]: 1 (2.2%) n (%)
Diarrhoea, number of occurrences [1]: 1 E
Diarrhoea, subjects with event [1]: 1 (2.2%) n (%)
Disturbance in attention, number of occurrences [1]: 1 E
Disturbance in attention, subjects with event [1]: 1 (2.2%) n (%)
Dizziness, subjects with event [1]: 0 n (%)
Dry mouth, number of occurrences [1]: 6 E
Dry mouth, subjects with event [1]: 6 (13.0%) n (%)
Dry throat, number of occurrences [1]: 3 E
Dry throat, subjects with event [1]: 3 (6.5%) n (%)
Dysgeusia, subjects with event [1]: 0 n (%)
Dysmenorrhoea (menstrual cramps), number of occurrences [1]: 1 E
Dysmenorrhoea (menstrual cramps), subjects with event [1]: 1 (2.2%) n (%)
Dyspepsia, subjects with event [1]: 0 n (%)
Ecchymosis (skin discoloration), subjects with event [1]: 0 n (%)
Energy increased, number of occurrences [1]: 2 E
Energy increased, subjects with event [1]: 2 (4.3%) n (%)
Epistaxis (nosebleed), subjects with event [1]: 0 n (%)
Euphoric mood, number of occurrences [1]: 29 E
Euphoric mood, subjects with event [1]: 29 (63.0%) n (%)
Eye disorders, number of occurrences [1]: 3 E
Eye disorders, subjects with event [1]: 3 (6.5%) n (%)
Eye irritation, number of occurrences [1]: 1 E
Eye irritation, subjects with event [1]: 1 (2.2%) n (%)
Eye pain, subjects with event [1]: 0 n (%)
Fatigue, number of occurrences [1]: 3 E
Fatigue, subjects with event [1]: 3 (6.5%) n (%)
Feeling hot, number of occurrences [1]: 3 E
Feeling hot, subjects with event [1]: 3 (6.5%) n (%)
Feeling of relaxation, subjects with event [1]: 0 n (%)
Flushing, number of occurrences [1]: 1 E
Flushing, subjects with event [1]: 1 (2.2%) n (%)
Gastrointestinal disorders, number of occurrences [1]: 10 E
Gastrointestinal disorders, subjects with event [1]: 9 (19.6%) n (%)
General disorders and administration site conditions, number of occurrences [1]: 13 E
General disorders and administration site conditions, subjects with event [1]: 12 (26.1%) n (%)
Haematoma, number of occurrences [1]: 1 E
Haematoma, subjects with event [1]: 1 (2.2%) n (%)
Head discomfort, subjects with event [1]: 0 n (%)
Headache, number of occurrences [1]: 7 E
Headache, subjects with event [1]: 7 (15.2%) n (%)
Hyperhidrosis, number of occurrences [1]: 3 E
Hyperhidrosis, subjects with event [1]: 3 (6.5%) n (%)
Hypervigilance, number of occurrences [1]: 16 E
Hypervigilance, subjects with event [1]: 16 (34.8%) n (%)
Hypopnoea (shallow breathing), number of occurrences [1]: 1 E
Hypopnoea (shallow breathing), subjects with event [1]: 1 (2.2%) n (%)
Infections and infestations, subjects with event [1]: 0 n (%)
Investigations, number of occurrences [1]: 1 E
Investigations, subjects with event [1]: 1 (2.2%) n (%)
Irritability, subjects with event [1]: 0 n (%)
Lacrimation increased, subjects with event [1]: 0 n (%)
Metabolism and nutrition disorders, number of occurrences [1]: 3 E
Metabolism and nutrition disorders, subjects with event [1]: 3 (6.5%) n (%)
Muscle tightness, number of occurrences [1]: 2 E
Muscle tightness, subjects with event [1]: 2 (4.3%) n (%)
Muscle twitching, number of occurrences [1]: 1 E
Muscle twitching, subjects with event [1]: 1 (2.2%) n (%)
Musculoskeletal and connective tissue disorders, number of occurrences [1]: 5 E
Musculoskeletal and connective tissue disorders, subjects with event [1]: 4 (8.7%) n (%)
Nasal congestion, number of occurrences [1]: 1 E
Nasal congestion, subjects with event [1]: 1 (2.2%) n (%)
Nasal discomfort, number of occurrences [1]: 3 E
Nasal discomfort, subjects with event [1]: 3 (6.5%) n (%)
Nasal dryness, subjects with event [1]: 0 n (%)
Nausea, number of occurrences [1]: 1 E
Nausea, subjects with event [1]: 1 (2.2%) n (%)
Neck pain, number of occurrences [1]: 1 E
Neck pain, subjects with event [1]: 1 (2.2%) n (%)
Nervous system disorders, number of occurrences [1]: 10 E
Nervous system disorders, subjects with event [1]: 9 (19.6%) n (%)
Obsessive-compulsive disorder, number of occurrences [1]: 1 E
Obsessive-compulsive disorder, subjects with event [1]: 1 (2.2%) n (%)
Palpitations, number of occurrences [1]: 11 E
Palpitations, subjects with event [1]: 11 (23.9%) n (%)
Peripheral swelling, number of occurrences [1]: 1 E
Peripheral swelling, subjects with event [1]: 1 (2.2%) n (%)
Pharyngeal hypoaesthesia (numbness of throat), number of occurrences [1]: 1 E
Pharyngeal hypoaesthesia (numbness of throat), subjects with event [1]: 1 (2.2%) n (%)
Pharyngitis, subjects with event [1]: 0 n (%)
Phlebitis superficial, subjects with event [1]: 0 n (%)
Phonophobia (fear of loud noises), number of occurrences [1]: 1 E
Phonophobia (fear of loud noises), subjects with event [1]: 1 (2.2%) n (%)
Photophobia, number of occurrences [1]: 1 E
Photophobia, subjects with event [1]: 1 (2.2%) n (%)
Psychiatric disorders, number of occurrences [1]: 54 E
Psychiatric disorders, subjects with event [1]: 41 (89.1%) n (%)
Pyrexia, subjects with event [1]: 0 n (%)
Reproductive system and breast disorders, number of occurrences [1]: 2 E
Reproductive system and breast disorders, subjects with event [1]: 2 (4.3%) n (%)
Respiratory, thoracic and mediastinal disorders, number of occurrences [1]: 12 E
Respiratory, thoracic and mediastinal disorders, subjects with event [1]: 10 (21.7%) n (%)
Restlessness, number of occurrences [1]: 2 E
Restlessness, subjects with event [1]: 2 (4.3%) n (%)
Rhinorrhoea (runny nose), subjects with event [1]: 0 n (%)
Sinus tachycardia, number of occurrences [1]: 7 E
Sinus tachycardia, subjects with event [1]: 7 (15.2%) n (%)
Skin and subcutaneous tissue disorders, number of occurrences [1]: 4 E
Skin and subcutaneous tissue disorders, subjects with event [1]: 4 (8.7%) n (%)
Skin erosion, number of occurrences [1]: 1 E
Skin erosion, subjects with event [1]: 1 (2.2%) n (%)
Sneezing, subjects with event [1]: 0 n (%)
Somnolence, number of occurrences [1]: 2 E
Somnolence, subjects with event [1]: 2 (4.3%) n (%)
Tachycardia, number of occurrences [1]: 9 E
Tachycardia, subjects with event [1]: 8 (17.4%) n (%)
Testis discomfort, number of occurrences [1]: 1 E
Testis discomfort, subjects with event [1]: 1 (2.2%) n (%)
Throat irritation, number of occurrences [1]: 3 E
Throat irritation, subjects with event [1]: 3 (6.5%) n (%)
Upper-airway cough syndrome, subjects with event [1]: 0 n (%)
Vascular disorders, number of occurrences [1]: 2 E
Vascular disorders, subjects with event [1]: 2 (4.3%) n (%)
Ventricular extrasystoles, number of occurrences [1]: 2 E
Ventricular extrasystoles, subjects with event [1]: 2 (4.3%) n (%)
Vessel puncture site bruise, number of occurrences [1]: 1 E
Vessel puncture site bruise, subjects with event [1]: 1 (2.2%) n (%)
Vessel puncture site pain, number of occurrences [1]: 1 E
Vessel puncture site pain, subjects with event [1]: 1 (2.2%) n (%)
Visual impairment, number of occurrences [1]: 1 E
Visual impairment, subjects with event [1]: 1 (2.2%) n (%)
Vomiting, subjects with event [1]: 0 n (%)
